# Measurements as given in ChEMBL document CHEMBL1149870, “Synthesis and antibacterial activity of egonol derivatives” (2008).
# Activity calls are given as the source filed them. The calls are words filed in the database; no cut-off is given here.
# Key:
# Assay type in all cases: functional
# [1] = system: Staphylococcus aureus; test: Antibacterial activity against Staphylococcus aureus by Muller Hilton broth method
# [2] = system: Bacillus subtilis; test: Antibacterial activity against Bacillus subtilis by Muller Hilton broth method
# [3] = system: Candida albicans; test: Antifungal activity against Candida albicans by Muller Hilton broth method
# [4] = system: Escherichia coli; test: Antibacterial activity against Escherichia coli by Muller Hilton broth method
Structure (SMILES),MIC [1],MIC [2],MIC [3],MIC [4],Activity [1],Activity [4],Activity [3]
COc1cc(CCCO)cc2c([N+](=O)[O-])c(-c3ccc4c(c3)OCO4)oc12,,800 µg/mL,800 µg/mL,,inactive,inactive,
COc1cc(CCCI)cc2cc(-c3ccc4c(c3)OCO4)oc12,800 µg/mL,800 µg/mL,800 µg/mL,800 µg/mL,,,
COc1c(Br)c(CCCO)cc2cc(-c3ccc4c(c3)OCO4)oc12,800 µg/mL,800 µg/mL,800 µg/mL,800 µg/mL,,,
COc1cc(CCCO)cc2cc(-c3ccc4c(c3)OCO4)oc12 [EGONOL],800 µg/mL,800 µg/mL,800 µg/mL,800 µg/mL,,,
COc1cc(CCCC#N)cc2cc(-c3ccc4c(c3)OCO4)oc12,800 µg/mL,800 µg/mL,,800 µg/mL,,,inactive

# Continued by falling MIC [2], values first:
MIC [1],MIC [2],MIC [3],MIC [4],Structure (SMILES),Activity [1],Activity [4],Activity [3]
800 µg/mL,800 µg/mL,800 µg/mL,800 µg/mL,COc1cc(CCCOC(=O)c2ccccc2)cc2cc(-c3ccc4c(c3)OCO4)oc12,,,
400 µg/mL,400 µg/mL,400 µg/mL,400 µg/mL,COc1cc(CCCOC=O)cc2cc(-c3ccc4c(c3)OCO4)oc12,,,
800 µg/mL,400 µg/mL,400 µg/mL,800 µg/mL,COc1cc(CCCBr)cc2cc(-c3ccc4c(c3)OCO4)oc12,,,
256 µg/mL,256 µg/mL,800 µg/mL,800 µg/mL,COc1cc(CCCOCCCBr)cc2cc(-c3ccc4c(c3)OCO4)oc12,,,
64 µg/mL,256 µg/mL,128 µg/mL,800 µg/mL,COc1cc(CCC=O)cc2cc(-c3ccc4c(c3)OCO4)oc12,,,
256 µg/mL,128 µg/mL,64 µg/mL,256 µg/mL,COc1cc(CCCCl)cc2cc(-c3ccc4c(c3)OCO4)oc12,,,
